Results as given in US20250041306A1, “TARGETED PROTEASE DEGRADATION (TED) PLATFORM” (EUBULUS BIOTHERAPEUTICS INC., priority 2021, published 2025).
Like-named read-outs stand apart in the source and are kept apart here.

Legend:
Assay type in all cases: cell-based
[1] = system: human gastric carcinoma cells N87; assay: Cell proliferation experiment (Alarm blue), N87
Method: (§1) The cells were cultured in conventional ways, and the cells should be passed for at least 2 generations before plating. Cells at the logarithmic growth phase were collected, prepared into single cell suspensions and counted. The concentration of cells was adjusted to desired concentration, and cells were inoculated into a 96-well cell culture plate at 100 μl per well. 100 μL of complete medium of the test compound were added to each well, 2 replicate wells for each concentration were set up, and diluted with a 5-fold gradient, and continued to culture for 72 h. All cells were subjected to EC50 test for corresponding samples.
(§2) The fluorescence intensity of each well was detected using the Alarm blue method, and IC50 was calculated.
(§3) IC50 was calculated according to the following formula:
(§4) [formula] • wherein Min, Max and Slope represent the minimum, maximum and slope respectively.

[2] = system: Human Small Cell Lung Cancer NCI-H82; assay: Cell proliferation experiment (Alarm blue), H82
Method: as §1, §2, §3, §4

Human Colon Cancer HT-29 = assay: Cell proliferation experiment (Alarm blue), HT-29
Method: as §1, §2, §3, §4

[3] = system: Human Small Cell Lung Cancer H69; assay: Cell proliferation experiment (Alarm blue), H69
Method: as §1, §2, §3, §4

[4] = system: Human Colon Cancer cells Colo205; assay: Cell proliferation experiment (Alarm blue), Colo205
Method: as §1, §2, §3, §4

[5] = N87 cells, 72 h culture, read-out: Anti cell proliferative activity EC50, N87
[6] = H82 cells, 72 h culture, read-out: Anti cell proliferative activity EC50, H82
[7] = HT-29 cells, 72 h culture, read-out: Anti cell proliferative activity EC50, HT-29
[8] = H69 cells, 72 h culture, read-out: Anti cell proliferative activity EC50, H69
[9] = Colo205 cells, 72 h culture, read-out: Anti cell proliferative activity EC50, Colo205
[10] = Homo sapiens, 72 h, N87 cells, 72 h culture, read-out: Anti cell proliferative activity EC50, N87
[11] = Homo sapiens, NCI-H82, 72 h, H82 cells, 72 h culture, read-out: Anti cell proliferative activity EC50, H82
[12] = Homo sapiens, HT-29 cells, 72 h culture, read-out: Anti cell proliferative activity EC50, HT-29
[13] = Homo sapiens, NCI-H69, H69 cells, 72 h culture, read-out: Anti cell proliferative activity EC50, H69
[14] = Homo sapiens, COLO 205, 72 h, Colo205 cells, 72 h culture, read-out: Anti cell proliferative activity EC50, Colo205
[15] = Homo sapiens, N87 cells, 72 h culture, read-out: Anti cell proliferative activity EC50, N87
[16] = Homo sapiens, NCI-H82, H82 cells, 72 h culture, read-out: Anti cell proliferative activity EC50, H82
[17] = Homo sapiens, COLO 205, Colo205 cells, 72 h culture, read-out: Anti cell proliferative activity EC50, Colo205

EC50 (Human Colon Cancer HT-29; [12]) [nM]	EC50 [3, 13] [nM]	Compound	EC50 [1, 5] [nM]	EC50 [2, 6] [nM]	EC50 (Human Colon Cancer HT-29; [7]) [nM]	EC50 [3, 8] [nM]	EC50 [4, 9] [nM]	other results
		CNC(=O)c1ccccc1Nc1nc(Nc2ccc(N3CCN(C(=O)N[C@H]4CC[C@@H](N(CCC#Cc5ccc6c(c5)CN(C5CCC(=O)NC5=O)C6=O)C(=O)OC(C)C(C)SSC[C@H](NC(=O)CC[C@H](NC(=O)c5ccc(NCc6cnc7nc(N)[nH]c(=O)c7n6)cc5)C(=O)O)C(=O)N[C@H](Cc5ccccc5)C(=O)N[C@H]5CSSC[C@@H](C(=O)N[C@H](CO)[C@@H](C)O)NC(=O)[C@H]([C@@H](C)O)NC(=O)[C@H](CCCCN)NC(=O)[C@@H](Cc6c[nH]c7ccccc67)NC(=O)[C@H](Cc6ccccc6)NC5=O)CC4)CC3)cc2)ncc1Cl (stereo partly drawn) [UB-181266]	> 1000	152	> 1000	> 1000	234	
		CC(C)c1cc(-c2nnc(O)n2-c2ccc3c(ccn3CCC3CCN(C(=O)NCCOCCOCCOCCOCCOCCOCCOCCOCCC(=O)N[C@@H](CSC4CC(=O)N(CCCCCC(=O)N[C@@H](C)C(=O)N[C@@H](C)C(=O)N[C@@H](CC(N)=O)C(=O)Nc5ccc(COC(=O)N(CCC#Cc6ccc7c(c6)CN(C6CCC(=O)NC6=O)C7=O)C6CCC(NC(=O)N7CCN(c8ccc(Nc9ncc(Cl)c(Nc%10ncc(Cl)c(Nc%11ccccc%11C(N)=O)n%10)n9)cc8)CC7)CC6)cc5)C4=O)C(=O)N[C@H](Cc4ccccc4)C(=O)N[C@H]4CSSC[C@@H](C(=O)N[C@H](CO)[C@@H](C)O)NC(=O)[C@H]([C@@H](C)O)NC(=O)[C@H](CCCCN)NC(=O)[C@@H](Cc5c[nH]c6ccccc56)NC(=O)[C@H](Cc5ccccc5)NC4=O)CC3)c2)c(O)cc1O (stereo partly drawn) [UB-181289]	698	410	> 1000	> 1000	621	
		CNC(=O)c1ccccc1Nc1nc(Nc2ccc(N3CCN(C(=O)N[C@H]4CC[C@@H](N(CCC#Cc5ccc6c(c5)CN(C5CCC(=O)NC5=O)C6=O)C(=O)OCCSSC[C@H](NC(=O)[C@H](CC(=O)O)NC(=O)[C@H](CC(=O)O)NC(=O)[C@H](CCCNC(=N)N)NC(=O)[C@H](CC(=O)O)NC(=O)CCC(NC(=O)c5ccc(NCc6cnc7nc(N)[nH]c(=O)c7n6)cc5)C(=O)O)C(=O)O)CC4)CC3)cc2)ncc1Cl (stereo partly drawn) [UB-181321]						EC50 ([1]; 72 h): > 1000 nM; EC50 ([2]; 72 h): 171 nM; EC50 (Human Colon Cancer HT-29; 72 h): > 1000 nM; EC50 ([3]; 72 h): > 1000 nM; EC50 ([4]; 72 h): 239 nM
		CNC(=O)c1ccccc1Nc1nc(Nc2ccc(N3CCN(C(=O)NC4CCC(N(CCC#Cc5ccc6c(c5)CN(C5CCC(=O)NC5=O)C6=O)C(=O)OCc5ccc(NC(=O)[C@H](CC(N)=O)NC(=O)[C@H](C)NC(=O)[C@H](C)NC(=O)CCCCCN6C(=O)CC(SC[C@H](NC(=O)CC[C@H](NC(=O)c7ccc(NCc8cnc9nc(N)[nH]c(=O)c9n8)cc7)C(=O)O)C(=O)N[C@H](Cc7ccccc7)C(=O)N[C@H]7CSSC[C@@H](C(=O)N[C@H](CO)[C@@H](C)O)NC(=O)[C@H]([C@@H](C)O)NC(=O)[C@H](CCCCN)NC(=O)[C@@H](Cc8c[nH]c9ccccc89)NC(=O)[C@H](Cc8ccccc8)NC7=O)C6=O)cc5)CC4)CC3)cc2)ncc1Cl (stereo partly drawn) [UB-181263]	> 1000	53	> 1000	192	9.1	
		C[C@H](NC(=O)[C@H](C)NC(=O)[C@H](CS(=O)(=O)O)NC(=O)CCN1C(=O)CC(SC[C@H](N)C(=O)N[C@H](Cc2ccccc2)C(=O)N[C@H]2CSSC[C@@H](C(=O)N[C@H](CO)[C@@H](C)O)NC(=O)[C@H]([C@@H](C)O)NC(=O)[C@H](CCCCN)NC(=O)[C@@H](Cc3c[nH]c4ccccc34)NC(=O)[C@H](Cc3ccccc3)CC2=O)C1=O)C(=O)N[C@@H](CC(N)=O)C(=O)Nc1ccc(COC(=O)N(CCC#Cc2ccc3c(c2)CN(C2CCC(=O)NC2=O)C3=O)C2CCC(NC(=O)N3CCN(c4ccc(Nc5ncc(Cl)c(Nc6ccccc6C(N)=O)n5)cc4)CC3)CC2)cc1 (stereo partly drawn) [UB-181345]	300	92.9	> 1000	> 1000	274	
194	19.1	NC(=O)c1ccccc1Nc1nc(Nc2ccc(N3CCN(C(=O)N[C@H]4C[C@@H](NCCC#Cc5ccc6c(c5)CN(C5CCC(=O)NC5=O)C6=O)C4)CC3)cc2)ncc1Cl (stereo partly drawn) [UB-181259]						EC50 [1, 10]: 111 nM; EC50 [2, 11]: 20.9 nM; EC50 [4, 14]: 33.9 nM
		CC[C@@H]1C(=O)N(C)c2cnc(Nc3ccc(-c4cn([C@H]5CC[C@@H](N(CCOCCC#Cc6cccc7c6CN(C6CCC(=O)NC6=O)C7=O)C(=O)OC(C)C(C)SSC[C@H](NC(=O)CC[C@H](NC(=O)c6ccc(NCc7cnc8nc(N)[nH]c(=O)c8n7)cc6)C(=O)O)C(=O)N[C@H](Cc6ccccc6)C(=O)N[C@H]6CSSC[C@@H](C(=O)N[C@H](CO)[C@@H](C)O)NC(=O)[C@H]([C@@H](C)O)NC(=O)[C@H](CCCCN)NC(=O)[C@@H](Cc7c[nH]c8ccccc78)NC(=O)[C@H](Cc7ccccc7)NC6=O)CC5)nn4)cc3OC)nc2N1C1CCCC1 (stereo partly drawn) [UB-181268]	> 1000	> 1000	> 1000	> 1000	> 1000	
522	> 1000	NC(=O)c1ccccc1Nc1nc(Nc2ccc(N3CCN(C(=O)NC4CCN(CCNCCC#Cc5ccc6c(c5)CN(C5CCC(=O)NC5=O)C6=O)CC4)CC3)cc2)ncc1Cl (stereo not drawn) [UB-181274]						EC50 [1, 10]: 18.2 nM; EC50 [2, 11]: 27.7 nM; EC50 [4, 14]: 49.4 nM
332	> 1000	CNC(=O)c1ccccc1Nc1nc(Nc2ccc(N3CCN(C(=O)CNCCC#Cc4ccc5c(c4)CN(C4CCC(=O)NC4=O)C5=O)CC3)cc2)ncc1Cl (stereo not drawn) [UB-181272]						EC50 [1, 10]: 23.1 nM; EC50 [2, 11]: 19.1 nM; EC50 [4, 14]: 21.1 nM
		CC[C@@H]1C(=O)N(C)c2cnc(Nc3ccc(-c4cn([C@H]5CC[C@@H](N(CCOCCC#Cc6cccc7c6CN(C6CCC(=O)NC6=O)C7=O)C(=O)OCc6ccc(NC(=O)[C@H](CC(N)=O)NC(=O)[C@H](C)NC(=O)[C@H](C)NC(=O)CCCCCN7C(=O)CC(SC[C@H](NC(=O)[C@H](CC(=O)O)NC(=O)[C@H](CC(=O)O)NC(=O)[C@H](CCCNC(=N)N)NC(=O)[C@H](CC(=O)O)NC(=O)CCC(NC(=O)c8ccc(NCc9cnc%10nc(N)[nH]c(=O)c%10n9)cc8)C(=O)O)C(=O)O)C7=O)cc6)CC5)nn4)cc3OC)nc2N1C1CCCC1 (stereo partly drawn) [UB-181337]						EC50 ([1]; 72 h): 175 nM; EC50 ([2]; 72 h): 183 nM; EC50 (Human Colon Cancer HT-29; 72 h): 233 nM; EC50 ([3]; 72 h): 79.3 nM; EC50 ([4]; 72 h): 33.1 nM
		CC(OC(=O)N(CCC#Cc1ccc2c(c1)CN(C1CCC(=O)NC1=O)C2=O)C1CCC(NC(=O)N2CCN(c3ccc(Nc4ncc(Cl)c(Nc5ccccc5C(N)=O)n4)cc3)CC2)CC1)C(C)SSC[C@H](N)C(=O)N[C@H](Cc1ccccc1)C(=O)N[C@H]1CSSC[C@@H](C(=O)N[C@H](CO)[C@@H](C)O)NC(=O)[C@H]([C@@H](C)O)NC(=O)[C@H](CCCCN)NC(=O)[C@@H](Cc2c[nH]c3ccccc23)NC(=O)[C@H](Cc2ccccc2)NC1=O (stereo partly drawn) [UB-181275]	> 1000	740	968	> 1000	442	
56.2	375	NC(=O)c1ccccc1Nc1nc(Nc2ccc(N3CCN(C(=O)CNCCC#Cc4ccc5c(c4)CN(C4CCC(=O)NC4=O)C5=O)CC3)cc2)ncc1Cl (stereo not drawn) [UB-181273]						EC50 [1, 10]: > 1000 nM; EC50 [2, 11]: 21.6 nM; EC50 [4, 14]: 21.4 nM
		CNC(=O)c1ccccc1Nc1nc(Nc2ccc(N3CCN(C(=O)N[C@H]4CC[C@@H](N(CCC#Cc5ccc6c(c5)CN(C5CCC(=O)NC5=O)C6=O)C(=O)OC(C)C(C)SSC[C@H](N)C(=O)N[C@H](Cc5ccccc5)C(=O)N[C@H]5CSSC[C@@H](C(=O)N[C@H](CO)[C@@H](C)O)NC(=O)[C@H]([C@@H](C)O)NC(=O)[C@H](CCCCN)NC(=O)[C@@H](Cc6c[nH]c7ccccc67)NC(=O)[C@H](Cc6ccccc6)NC5=O)CC4)CC3)cc2)ncc1Cl (stereo partly drawn) [UB-181243]	668	240	> 1000	> 1000	311	

Compound	EC50 (Human Colon Cancer HT-29; [12]) [nM]	EC50 [3, 13] [nM]	EC50 [1, 5] [nM]	EC50 [2, 6] [nM]	EC50 (Human Colon Cancer HT-29; [7]) [nM]	EC50 [3, 8] [nM]	EC50 [4, 9] [nM]	other results
NC(=O)c1ccccc1Nc1nc(Nc2ccc(N3CCN([C@H]4CC[C@@H](NCCC#Cc5ccc6c(c5)CN(C5CCC(=O)NC5=O)C6=O)CC4)CC3)cc2)ncc1Cl (stereo partly drawn) [UB-181315]	> 1000	> 1000						EC50 [1, 15]: > 1000 nM; EC50 [2, 16]: 314 nM; EC50 [4, 17]: 723 nM
CNC(=O)c1ccccc1Nc1nc(Nc2ccc(N3CCN(C(=O)N[C@H]4CC[C@@H](N(CCC#Cc5ccc6c(c5)CN(C5CCC(=O)NC5=O)C6=O)C(=O)OCc5ccc(NC(=O)[C@H](CC(N)=O)NC(=O)[C@H](C)NC(=O)[C@H](C)NC(=O)COCCOCCOCCOC)cc5)CC4)CC3)cc2)ncc1Cl (stereo partly drawn) [UB-181242]	> 1000	> 1000						EC50 [1, 15]: 226 nM; EC50 [2, 16]: 94.2 nM; EC50 [4, 17]: 75.2 nM
